Data reported in US20230085307A1, “PYRIDAZINONE COMPOUND AND HERBICIDE” (NISSAN CHEMICAL CORPORATION, priority 2019, published 2023).

Experiments:
[1] = system: rice flat sedge; assay: Test Example 3: herbicidal effect by foliage application, Wagner pot (Table 18, symbol E); format: in vivo, rice flat sedge (Cyperus iria); conditions: 320 g/ha
Outline: (§1)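 Plants were sown in alluvial soil held under 0.1–0.5 cm standing water and grown 14 days in a greenhouse at 25–30 °C. An emulsifiable formulation, water-diluted to the set dose, was then sprayed onto the foliage, and effects were scored three weeks later using previously defined criteria.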

[2] = system: chickweed; assay: Test Example 4: herbicidal effect by soil treatment (Table 19, symbol P); format: in vivo, common chickweed (Stellaria media); conditions: amount of applied herbicide 320 g/ha
Outline: (§2)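 Soil-surface application: an emulsion agent diluted with water to the predetermined dose is sprayed uniformly over seeds lying under roughly 1.5 cm of sterilized diluvial soil. Boxes stay in a greenhouse at 25° C. to 30° C. Three weeks later, each species is graded on previously defined criteria.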

[3] = system: green foxtail; assay: Test Example 4: herbicidal effect by soil treatment (Table 19, symbol G); format: in vivo, green foxtail (Setaria viridis); conditions: amount of applied herbicide 320 g/ha
Outline: as §2

[4] = system: lambsquarters; assay: Test Example 5: herbicidal effect by foliage application, plastic box (Table 20, symbol O); format: in vivo, lambsquarters (Chenopodium album); conditions: foliage application, 320 g/ha, three weeks after application
Outline: (§3)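 Sow seeds spot-wise in sterilized diluvial soil; cover with ~1.5 cm soil. Grow 14 days in greenhouse, 25° C. to 30° C. Spray foliage with emulsion diluted to predetermined amount. Rate effect after 3 weeks.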

[5] = system: velvetleaf; assay: Test Example 4: herbicidal effect by soil treatment (Table 19, symbol M); format: in vivo, velvetleaf (Abutilon theophrasti); conditions: amount of applied herbicide 320 g/ha
Outline: as §2

[6] = system: Japanese bulrush; assay: Test Example 1: herbicidal activity, application before weed generation under submerged conditions (Table 16, symbol B); format: in vivo, Japanese bulrush (Schoenoplectus juncoides); conditions: amount of applied herbicide 320 g/ha
Outline: (§4)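 Submerged Wagner pots (alluvial soil, 4 cm water) sown with weed seeds and planted with 2.5-leaf rice seedlings; emulsifiable concentrate diluted in water applied to water surface on sowing day. Held in greenhouse at 25-30 °C; injury scored 0-5 by herbicidal rate after three weeks.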

[7] = system: southern crabgrass; assay: Test Example 4: herbicidal effect by soil treatment (Table 19, symbol F); format: in vivo, southern crabgrass (Digitaria ciliaris); conditions: amount of applied herbicide 320 g/ha
Outline: as §2

[8] = system: redroot pigweed; assay: Test Example 4: herbicidal effect by soil treatment (Table 19, symbol N); format: in vivo, redroot pigweed (Amaranthus retroflexus); conditions: amount of applied herbicide 320 g/ha
Outline: as §2

[9] = system: Italian ryegrass; assay: Test Example 4: herbicidal effect by soil treatment (Table 19, symbol K); format: in vivo, Italian ryegrass (Lolium multiflorum); conditions: amount of applied herbicide 320 g/ha
Outline: as §2

[10] = system: persian speedwell; assay: Test Example 4: herbicidal effect by soil treatment (Table 19, symbol R); format: in vivo, Persian speedwell (Veronica persica); conditions: amount of applied herbicide 320 g/ha
Outline: as §2

[11] = system: barnyard grass; assay: Test Example 5: herbicidal effect by foliage application, plastic box (Table 20, symbol H); format: in vivo, barnyard grass (Echinochloa crus-galli); conditions: foliage application, 320 g/ha, three weeks after application
Outline: as §3

[12] = system: wild oat; assay: Test Example 5: herbicidal effect by foliage application, plastic box (Table 20, symbol I); format: in vivo, wild oat (Avena fatua); conditions: foliage application, 320 g/ha, three weeks after application
Outline: as §3

[13] = system: barnyard grass; assay: Test Example 4: herbicidal effect by soil treatment (Table 19, symbol H); format: in vivo, barnyard grass (Echinochloa crus-galli); conditions: amount of applied herbicide 320 g/ha
Outline: as §2

[14] = system: lambsquarters; assay: Test Example 4: herbicidal effect by soil treatment (Table 19, symbol O); format: in vivo, lambsquarters (Chenopodium album); conditions: amount of applied herbicide 320 g/ha
Outline: as §2

[15] = system: wild oat; assay: Test Example 4: herbicidal effect by soil treatment (Table 19, symbol I); format: in vivo, wild oat (Avena fatua); conditions: amount of applied herbicide 320 g/ha
Outline: as §2

[16] = system: windgrass; assay: Test Example 4: herbicidal effect by soil treatment (Table 19, symbol L); format: in vivo, windgrass (Apera spica-venti); conditions: amount of applied herbicide 320 g/ha
Outline: as §2

[17] = system: blackgrass; assay: Test Example 4: herbicidal effect by soil treatment (Table 19, symbol J); format: in vivo, blackgrass (Alopecurus myosuroides); conditions: amount of applied herbicide 320 g/ha
Outline: as §2

[18] = system: windgrass; assay: Test Example 5: herbicidal effect by foliage application, plastic box (Table 20, symbol L); format: in vivo, windgrass (Apera spica-venti); conditions: foliage application, 320 g/ha, three weeks after application
Outline: as §3

[19] = system: velvetleaf; assay: Test Example 5: herbicidal effect by foliage application, plastic box (Table 20, symbol M); format: in vivo, velvetleaf (Abutilon theophrasti); conditions: foliage application, 320 g/ha, three weeks after application
Outline: as §3

[20] = system: false cleavers; assay: Test Example 4: herbicidal effect by soil treatment (Table 19, symbol Q); format: in vivo, false cleavers (Galium spurium); conditions: amount of applied herbicide 320 g/ha
Outline: as §2

[21] = system: blackgrass; assay: Test Example 5: herbicidal effect by foliage application, plastic box (Table 20, symbol J); format: in vivo, blackgrass (Alopecurus myosuroides); conditions: foliage application, 320 g/ha, three weeks after application
Outline: as §3

[22] = system: persian speedwell; assay: Test Example 5: herbicidal effect by foliage application, plastic box (Table 20, symbol R); format: in vivo, Persian speedwell (Veronica persica); conditions: foliage application, 320 g/ha, three weeks after application
Outline: as §3

[23] = system: oval-leafed pondweed; assay: Test Example 1: herbicidal activity, application before weed generation under submerged conditions (Table 16, symbol C); format: in vivo, oval-leafed pondweed (Monochoria vaginalis); conditions: amount of applied herbicide 320 g/ha
Outline: as §4

[24] = system: Chinese sprangletop; assay: Test Example 3: herbicidal effect by foliage application, Wagner pot (Table 18, symbol D); format: in vivo, chinese sprangletop (Leptochloa chinensis); conditions: 320 g/ha
Outline: as §1

[25] = system: green foxtail; assay: Test Example 5: herbicidal effect by foliage application, plastic box (Table 20, symbol G); format: in vivo, green foxtail (Setaria viridis); conditions: foliage application, 320 g/ha, three weeks after application
Outline: as §3

[26] = system: late watergrass; assay: Test Example 1: herbicidal activity, application before weed generation under submerged conditions (Table 16, symbol A); format: in vivo, late watergrass (Echinochloa oryzicola); conditions: amount of applied herbicide 320 g/ha
Outline: as §4

[27] = system: southern crabgrass; assay: Test Example 5: herbicidal effect by foliage application, plastic box (Table 20, symbol F); format: in vivo, southern crabgrass (Digitaria ciliaris); conditions: foliage application, 320 g/ha, three weeks after application
Outline: as §3

[28] = system: Italian ryegrass; assay: Test Example 5: herbicidal effect by foliage application, plastic box (Table 20, symbol K); format: in vivo, Italian ryegrass (Lolium multiflorum); conditions: foliage application, 320 g/ha, three weeks after application
Outline: as §3

[29] = system: barnyard grass; assay: Test Example 3: herbicidal effect by foliage application, Wagner pot (Table 18, symbol H); format: in vivo, barnyard grass (Echinochloa crus-galli); conditions: 320 g/ha
Outline: as §1

In the case of Cc1nn(C)c(=O)c(-c2c(-c3ccc(OC(F)F)cc3)sc3cc(F)c(F)cc23)c1O [5-084], the “herbicidal effect on rice flat sedge (E)” value [1] is reported as 3 (Herbicidal rate of 40% or more and less than 70%), the “P: chickweed, herbicidal effect grade” value [2] is reported as 0 (Herbicidal rate of 5% or less (almost no effect)) and the “G: green foxtail, herbicidal effect grade” value [3] is reported as 2 (Herbicidal rate of 20% or more and less than 40%). For the same compound, the “herbicidal effect on lambsquarters (O)” value [4] was 5 (Herbicidal rate of 90% or more (almost completely withered)), the “M: velvetleaf, herbicidal effect grade” value [5] was 4 (Herbicidal rate of 70% or more and less than 90%) and the “Herbicidal effect, B: Japanese bulrush” value [6] was 2 (Herbicidal rate of 20% or more and less than 40%). For the same compound, the “F: southern crabgrass, herbicidal effect grade” value [7] was 0 (Herbicidal rate of 5% or less (almost no effect)), the “N: redroot pigweed, herbicidal effect grade” value [8] was 5 (Herbicidal rate of 90% or more (almost completely withered)) and the “K: Italian ryegrass, herbicidal effect grade” value [9] was 0 (Herbicidal rate of 5% or less (almost no effect)). For the same compound, the “R: persian speedwell, herbicidal effect grade” value [10] was 3 (Herbicidal rate of 40% or more and less than 70%), the “herbicidal effect on barnyard grass (H)” value [11] was 2 (Herbicidal rate of 20% or more and less than 40%) and the “herbicidal effect on wild oat (I)” value [12] was 3 (Herbicidal rate of 40% or more and less than 70%). For the same compound, the “H: barnyard grass, herbicidal effect grade” value [13] was 1 (Herbicidal rate of 5% or more and less than 20%), the “O: lambsquarters, herbicidal effect grade” value [14] was 5 (Herbicidal rate of 90% or more (almost completely withered)) and the “I: wild oat, herbicidal effect grade” value [15] was 0 (Herbicidal rate of 5% or less (almost no effect)). For the same compound, the “L: windgrass, herbicidal effect grade” value [16] was 5 (Herbicidal rate of 90% or more (almost completely withered)), the “J: blackgrass, herbicidal effect grade” value [17] was 0 (Herbicidal rate of 5% or less (almost no effect)) and the “herbicidal effect on windgrass (L)” value [18] was 5 (Herbicidal rate of 90% or more (almost completely withered)). For the same compound, the “herbicidal effect on velvetleaf (M)” value [19] was 5 (Herbicidal rate of 90% or more (almost completely withered)), the “Q: false cleavers, herbicidal effect grade” value [20] was 2 (Herbicidal rate of 20% or more and less than 40%) and the “herbicidal effect on blackgrass (J)” value [21] was 4 (Herbicidal rate of 70% or more and less than 90%). For the same compound, the “herbicidal effect on persian speedwell (R)” value [22] was 5 (Herbicidal rate of 90% or more (almost completely withered)), the “Herbicidal effect, C: oval-leafed pondweed” value [23] was 0 (Herbicidal rate of 5% or less (almost no effect)) and the “herbicidal effect on Chinese sprangletop (D)” value [24] was 0 (Herbicidal rate of 5% or less (almost no effect)). For the same compound, the “herbicidal effect on green foxtail (G)” value [25] was 4 (Herbicidal rate of 70% or more and less than 90%), the “Herbicidal effect, A: late watergrass” value [26] was 3 (Herbicidal rate of 40% or more and less than 70%) and the “herbicidal effect on southern crabgrass (F)” value [27] was 4 (Herbicidal rate of 70% or more and less than 90%). For the same compound, the “herbicidal effect on Italian ryegrass (K)” value [28] was 5 (Herbicidal rate of 90% or more (almost completely withered)) and the “herbicidal effect on barnyard grass (H)” value [29] was 4 (Herbicidal rate of 70% or more and less than 90%).
